Patent US11351155B2, “Compositions and methods of modulating s-nitrosylation” (CASE WESTERN RESERVE UNIVERSITY, priority 2014, dated 2022)

Key:
Adh6 = target: T1, Adh6 (Saccharomyces cerevisiae, UniProt Q04894); test: Kinetic analysis and substrate specificity of SNO-CoA reductase activity of purified Adh6; type: biochemical, yeast (S. cerevisiae); details: purified Adh6 20 nM, NADPH 100 μM, substrate 100 μM (FIG. 2D)
T1 construct: endogenous in cells; host or cells: S. cerevisiae cells; five-step chromatographic purification from crude extract
T1 sequence (Q04894 1-360): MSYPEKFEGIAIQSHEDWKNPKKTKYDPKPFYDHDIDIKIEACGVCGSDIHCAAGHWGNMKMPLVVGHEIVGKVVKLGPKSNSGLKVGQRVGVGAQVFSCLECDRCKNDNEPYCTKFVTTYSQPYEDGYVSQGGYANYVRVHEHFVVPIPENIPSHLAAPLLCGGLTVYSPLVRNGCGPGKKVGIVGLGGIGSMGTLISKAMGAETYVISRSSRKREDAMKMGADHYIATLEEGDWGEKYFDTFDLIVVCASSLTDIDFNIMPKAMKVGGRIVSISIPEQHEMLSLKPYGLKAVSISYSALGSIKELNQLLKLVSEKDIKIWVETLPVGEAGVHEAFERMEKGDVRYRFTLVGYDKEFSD
Experimental: (§1) Kinetic analysis was carried out with purified Adh6 and AKR1A1. The reactions contained a fixed concentration of NADPH (100 μM) and several concentrations of SNO-CoA.
(§2) Kinetic analysis was carried out employing assay conditions as above. For Km determination, reactions (4-5 replicates) were performed with a fixed amount of purified Adh6, 100 μM NADPH and SNO-CoA concentrations of 16-375 μM. Initial rates were calculated from the absorbance decrease at 340 nm using a combined extinction coefficient of 7.06 mM^−1 cm^−1 for SNO and NADPH. The kcat was determined at saturating substrate concentrations.

intact yeast cells = test: SNO-RAC/iTRAQ identification of SNO-proteins in treated intact yeast; type: cell-based, yeast (S. cerevisiae); details: intact cells treated with 100 μM for 2 hr
Experimental: Protein S-nitrosylation was assessed by the SNO-RAC assay, and differences in the profile of protein S-nitrosylation in WT versus adh6Δ yeast (under basal growth conditions and upon treatment of cells with EtCysNO) were quantified by iTRAQ labeling.
(§3) For analysis in yeast, cells were grown to absorbance 600 nm=1.0 and lysed by bead beating in lysis buffer (20 mM bis-tris propane, pH 7.0, 50 mM NaCl, 100 mM EDTA, 100 μM DTPA, 1 mM PMSF and protease inhibitor cocktail (Roche)). The lysate was centrifuged at 20,000 g for 10 min and the supernatant was adjusted to 1 mg/ml protein and retained for analysis. For analysis of SNO-proteins by mercury-coupled-photolysis-chemiluminescence, samples were processed as previously described. […] Eluates were analyzed by SDS-PAGE followed by Western blotting for erg10 (see below) or, for mass spectrometric analysis, individual lanes were excised from the gel and subjected to trypsin digest prior to processing for LC/MS-MS (see below). […]
(§4) Prior to analysis by LC-MS/MS, samples were passed through a C18 spin column (Thermo Pierce, Rockford, Ill.) and reconstituted in 0.1% formic acid. […] For peptide identification and quantification using iTRAQ reporter ions, MS analysis was performed using a hybrid linear ion trap Orbitrap Velos mass spectrometer (LTQ-Orbitrap Velos, Thermo, Waltham, Mass.). […]

WT and adh6Δ yeast = test: Metabolomic analysis of mevalonate, CoA and acetyl-CoA in treated yeast; type: cell-based, yeast (S. cerevisiae); details: 2 hr
Experimental: In extracts of WT and adh6Δ yeast (untreated and following treatment with EtCysNO), mevalonate, CoA and acetyl-CoA were separated and quantified by GC-MS (mevalonate) or LC-MS/MS (CoA, acetyl-CoA).
Yeast cells grown to mid-log phase (absorbance 600 nm=0.4-0.6) were left untreated or treated with EtCysNO (100 μM) for 2 hrs. Cells were harvested and washed with ice-cold H2O containing 0.1 mM EDTA or DTPA and stored at −80° C. until further analysis. To the samples, 3 ml of MeOH: H2O (8:2) was added followed by addition of 100 μl of D4 (1 mM) citrate as an internal standard. Samples were homogenized for 1 minute and 1 ml of the subsequent homogenate was taken and centrifuged at 800 g for 20 minutes. Supernatant was dried by nitrogen gas. 60 μl of N,O-bistrifluoroacetaniide was added to the dried residue and incubated at 70° C. for 30 minutes. Analyses were carried out on an Agilent 5973 mass spectrometer, linked to a 6890 gas chromatograph system equipped with an autosampler. An Agilent VF-5MS capillary column (60 m×0.32 mm×0.25 μm) was used for chromatographic separation. The carrier gas was helium (1 ml/min) with a pulse pressure of 20.1 p.s.i. The injection was in splitless mode. The temperature for both inlet and transfer line was set at 300° C. The ion source and quadrupole temperature were set at 230 and 150° C. The GC temperature program was as follows: start at 80° C., hold for 1 min, and increase by 10° C./min to 300° C., and it remained at 300° C. for 9 min. Mevalonate and internal standard signals were monitored at its nominal m/z with SIM mode. The m/z monitored for mevalonate and internal standard: 349 and 469, respectively. All the masses were measured in Electron Impact Ion Source. The retention times of mevalonate and internal standard are 15.2 and 18.1 minutes, respectively.
Yeast cells grown to mid-log phase (absorbance 600 nm=0.4-0.6) were left untreated or treated with EtCysNO (500 μM) for 2 hrs. […]

[1] = target: T2, Erg10 (acetoacetyl-CoA thiolase) (Saccharomyces cerevisiae, UniProt P41338); test: Assay for acetoacetyl-CoA thiolase (Erg10) activity; type: biochemical, yeast (S. cerevisiae); details: for Effect on Erg10 thiolase activity: yeast extracts and purified protein (FIG. 4D, E)
T2 construct: Erg10 activity was assayed in extracts of WT yeast in the presence or absence of SNO-CoA; endogenous in cells; host or cells: wild-type S. cerevisiae lysate/extract
Experimental: Acetoacetyl-CoA thiolase activity was assayed in the physiological forward direction (2 acetyl-CoA→acetoactyl-CoA+CoA-SH) by following the formation of CoA-SH with 5,5′-dithiobis(2-nitrobenzoic acid) (DTNB) at 412 nm, as outlined recently for assay of HMG-CoA synthase activity. This approach avoids background absorbance in lysates and interference from added SNO-CoA in the reverse-reaction assay of acetoacetyl-CoA consumption at 300 nm (acetoacetyl-CoA+CoA-SH→2 acetyl-CoA). The assay was performed in 20 mM tris pH 8.0, containing 0.1 mM EDTA and 0.1 mM DTPA. The reaction mixture (1 ml) contained yeast lysate and 100 μM acetyl-CoA. Reaction without the addition of acetyl-CoA was used as background control. In some experiments, various concentrations of GSNO or SNO-CoA were also added. The reaction was monitored following the addition of 0.5 mM DTNB for 3 min at 412 nm. Thiolase activity was determined using rates between 1 and 3 minutes.

[2] = tested on: lysates of wild-type (WT) yeast; test: SNO-RAC/LC-MS/MS identification of SNO-proteins in treated yeast lysates; type: biochemical, yeast (S. cerevisiae); details: lysates treated with 60 μM for 10 min
Experimental: as §3, with “described. For SNO-RAC, some samples (1 mg/ml) were left untreated or treated for 10 min with 60 μM SNO-CoA±100 μM NADPH. The reaction was stopped by adding 3 volumes of ice-cold acetone, followed by precipitation at −20° C. for 20 min.” for “described.”
as §4

[3] = substrate: CC(C)(COP(=O)(O)OP(=O)(O)OC[C@H]1O[C@@H](n2cnc3c(N)ncnc32)[C@H](O)[C@@H]1OP(=O)(O)O)[C@@H](O)C(=O)NCCC(=O)NCCSN=O; test: Kinetic analysis and substrate specificity of SNO-CoA reductase activity of purified Adh6; type: biochemical, yeast (S. cerevisiae); details: other: purified Adh6, 100 μM NADPH
Experimental: as §1, §2

[4] = substrate: CC(C)(COP(=O)(O)OP(=O)(O)OC[C@H]1O[C@@H](n2cnc3c(N)ncnc32)[C@H](O)[C@@H]1OP(=O)(O)O)[C@@H](O)C(=O)NCCC(=O)NCCSN=O; test: Kinetic analysis of SNO-CoA reductase activity of purified AKR1A1; type: biochemical, bovine; details: other: purified AKR1A1, 100 μM NADPH; pH 7.0
Experimental: as §1
Kinetic analyses were carried out in 50 mM phosphate buffer, pH 7.0, containing 100 μM EDTA and DTPA. For Km determination, reactions (2-4 replicates) were performed with a fixed amount of purified AKR1A1, 100 μM NADPH and 2-500 μM SNO-CoA. Initial rates were calculated from the absorbance decrease at 340 nm. The kcat was determined at saturating substrate concentrations.

T2 sequence (P41338 whole entry): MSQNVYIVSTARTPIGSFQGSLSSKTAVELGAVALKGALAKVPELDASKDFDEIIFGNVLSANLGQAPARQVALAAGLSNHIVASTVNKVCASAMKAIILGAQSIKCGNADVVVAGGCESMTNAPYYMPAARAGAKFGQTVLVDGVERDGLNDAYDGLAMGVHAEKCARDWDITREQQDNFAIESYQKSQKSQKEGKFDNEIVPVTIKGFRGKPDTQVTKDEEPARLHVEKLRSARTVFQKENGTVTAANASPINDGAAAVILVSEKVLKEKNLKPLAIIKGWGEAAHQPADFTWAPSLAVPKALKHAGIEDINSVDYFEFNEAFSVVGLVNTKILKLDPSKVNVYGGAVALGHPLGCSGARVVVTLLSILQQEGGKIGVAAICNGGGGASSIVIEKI

N[C@@H](CSN=O)C(=O)O [CysNO, S-nitroso-cysteine]
Metabolism by Adh6 (NADPH consumption) (Adh6): does not metabolize

CCOC(=O)[C@@H](N)CSN=O [EtCysNO, S-nitroso-cysteine ethyl ester]
Number of SNO-proteins identified (intact yeast cells): 103 | Change of mevalonate levels (WT and adh6Δ yeast; adh6Δ yeast, 100 μM): significant decrease | Change of free CoA levels (WT and adh6Δ yeast; yeast, 500 μM): large decreases | Change of acetyl-CoA levels (WT and adh6Δ yeast; yeast, 500 μM, increase larger in adh6Δ versus WT cells): increased

CC(C)(COP(=O)(O)OP(=O)(O)OC[C@H]1O[C@@H](n2cnc3c(N)ncnc32)[C@H](O)[C@@H]1OP(=O)(O)O)[C@@H](O)C(=O)NCCC(=O)NCCSN=O [SNO-CoA, S-nitroso-CoA]
IC50 ([1]; purified protein, read-out: IC50 for inhibition of Erg10 thiolase activity): 4 µM | Effect on Erg10 thiolase activity [1]: potently inhibited | Number of SNO-proteins identified [2]: 345

CC(C)(COP(=O)(O)OP(=O)(O)OC[C@H]1O[C@@H](n2cnc3c(N)ncnc32)[C@H](O)[C@@H]1OP(=O)(O)O)[C@@H](O)C(=O)NCCC(=O)NCCSC(=O)CCC(=O)O [succinyl-CoA]
Effect on Erg10 thiolase activity [1]: neither GSNO (FIG. 4D) nor succinyl-CoA (a CoA analogue) (FIG. 4E) had a significant effect

N[C@@H](CCC(=O)N[C@@H](CSN=O)C(=O)NCC(=O)O)C(=O)O [GSNO, S-nitrosoglutathione]
Effect on Erg10 thiolase activity [1]: neither GSNO (FIG. 4D) nor succinyl-CoA (a CoA analogue) (FIG. 4E) had a significant effect | Metabolism by Adh6 (NADPH consumption) (Adh6): specific for SNO-CoA versus GSNO

B1: Adh6 (Saccharomyces cerevisiae S288C) (protein)
chain: T1 sequence (Q04894 1-360)
notes: endogenous in cells; host or cells: S. cerevisiae cells; five-step chromatographic purification from crude extract
Km [3]: 180.5 ± 16.8 µM | kcat [3]: 43.275 ± 1.845 s⁻¹

B2: AKR1A1 (Bos taurus) (protein)
chain: MAASCILLHTGQKMPLIGLGTWKSDPGQVKAAIKYALSVGYRHIDCAAIYGNETEIGEALKENVGPGKLVPREELFVTSKLWNTKHHPEDVEPALRKTLADLQLEYLDLYLMHWPYAFERGDSPFPKNADGTIRYDSTHYKETWRALEALVAKGLVRALGLSNFNSRQIDDVLSVASVRPAVLQVECHPYLAQNELIAHCQARNLEVTAYSPLGSSDRAWRDPEEPVLLKEPVVLALAEKHGRSPAQILLRWQVQRKVSCIPKSVTPSRILENIQVFDFTFSPEEMKQLDALNKNLRFIVPMLTVDGKRVPRDAGHPLYPFNDPY
notes: Bovine kidney tissue (˜50 g) was suspended in 100 ml of lysis buffer; tissue Rockland Immunochemicals Inc. (tissue supplier); host or cells: bovine kidney
Km [4]: 20.5 ± 1.8 µM | kcat [4]: 10.4 ± 0.396 s⁻¹
